# Data published in patent publication US11802120B2, “Fused cyclic urea derivatives as CRHR2 antagonist” (RaQualia Pharma Inc., priority 2018, dated 2023).
# Target: T1, human CRHR2-alpha (Homo sapiens, UniProt Q13324)
# T1 sequence (Q13324 1-411): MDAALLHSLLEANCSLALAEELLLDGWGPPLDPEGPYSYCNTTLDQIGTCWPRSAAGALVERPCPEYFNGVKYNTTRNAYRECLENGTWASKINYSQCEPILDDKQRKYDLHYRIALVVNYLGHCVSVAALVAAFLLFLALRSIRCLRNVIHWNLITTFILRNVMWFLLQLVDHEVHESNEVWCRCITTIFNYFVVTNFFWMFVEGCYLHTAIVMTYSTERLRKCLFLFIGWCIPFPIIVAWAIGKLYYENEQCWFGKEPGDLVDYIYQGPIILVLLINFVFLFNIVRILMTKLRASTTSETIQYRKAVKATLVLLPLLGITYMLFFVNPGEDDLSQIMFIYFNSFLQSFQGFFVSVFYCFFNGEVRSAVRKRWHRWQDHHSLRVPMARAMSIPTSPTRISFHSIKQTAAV
# Experiment: cAMP functional assay for human CRHR2 (LANCE Ultra cAMP, TR-FRET)
# Format: cell-based
# Settings: CHO-K1 cells expressing human CRHR2-alpha, agonist human urocortin2 at EC80, cAMP; read-out: IC50 against CRHR2
# In short: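 First, starved and frozen CHO-K1 cells expressing the receptor are thawed into IBMX-containing HBSS buffer (pH 7.4). Next, compounds are added for 30 min at 25° C. Then agonist at EC80 (urocortin2 or CRF, per receptor) is added for another 30 min, followed by cAMP detection reagents.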
row,Compound,IC50 [nM]
1,"O=C(N[C@H]1CC[C@H](Cn2c(=O)n(-c3ccc(NCC(F)F)nc3)c3ccccc32)CC1)c1cc(Cl)cnc1C(F)F [Example 464, 5-chloro-N-((1r,4r)-4-((3-(6-((2,2-difluoroethyl)amino)pyridin-3-yl)-2-oxo-2,3-dihydro-1H-benzo[d]imidazol-1-yl)methyl)cyclohexyl)-2-(difluoromethyl)nicotinamide]",< 300
2,"CNc1cc(C)c(-n2c(=O)n(C[C@H]3CC[C@H](NC(=O)c4cc(Cl)cnc4C(F)F)CC3)c3ccccc32)cn1 [Example 465, 5-chloro-2-(difluoromethyl)-N-((1r,4r)-4-((3-(4-methyl-6-(methylamino)pyridin-3-yl)-2-oxo-2,3-dihydro-1H-benzo[d]imidazol-1-yl)methyl)cyclohexyl)nicotinamide]",< 300
3,"C[C@@H](O)COc1ccc(-n2c(=O)n(C[C@H]3CC[C@H](NC(=O)c4cc(Cl)cnc4C(F)(F)F)CC3)c3ccccc32)cn1 [Example 466, 5-chloro-N-((1R,4r)-4-((3-(6-((R)-2-hydroxypropoxy)pyridin-3-yl)-2-oxo-2,3-dihydro-1H-benzo[d]imidazol-1-yl)methyl)cyclohexyl)-2-(trifluoromethyl)nicotinamide]",< 300
4,"C[C@H](O)COc1ccc(-n2c(=O)n(C[C@H]3CC[C@H](NC(=O)c4cc(Cl)cnc4C(F)(F)F)CC3)c3ccccc32)cn1 [Example 467, 5-chloro-N-((1S,4r)-4-((3-(6-((S)-2-hydroxypropoxy)pyridin-3-yl)-2-oxo-2,3-dihydro-1H-benzo[d]imidazol-1-yl)methyl)cyclohexyl)-2-(trifluoromethyl)nicotinamide]",< 300
5,"Cc1ncc(Cl)cc1C(=O)N[C@H]1CC[C@H](Cn2c(=O)n(-c3ccc(-n4ccnc4)cc3)c3ccccc32)CC1 [Example 468, N-((1r,4r)-4-((3-(4-(1H-imidazol-1-yl)phenyl)-2-oxo-2,3-dihydro-1H-benzo[d]imidazol-1-yl)methyl)cyclo-hexyl)-5-chloro-2-methyl-nicotinamide]",< 300
6,"Cc1ncc(Cl)cc1C(=O)N[C@H]1CC[C@H](Cn2c(=O)n(-c3ccc(-c4ccn[nH]4)cc3)c3ccccc32)CC1 [Example 469, N-((1r,4r)-4-((3-(4-(1H-pyrazol-5-yl)phenyl)-2-oxo-2,3-dihydro-1H-benzo[d]imidazol-1-yl)methyl)cyclo-hexyl)-5-chloro-2-methylnicotinamide]",< 300
7,"Cc1ncc(Cl)cc1C(=O)N[C@H]1CC[C@H](Cn2c(=O)n(-c3ccc(-n4ccnn4)cc3)c3ccccc32)CC1 [Example 470, N-((1r,4r)-4-((3-(4-(1H-1,2,3-triazol-1-yl)phenyl)-2-oxo-2,3-dihydro-1H-benzo[d]imidazol-1-yl)methyl)cyclohexyl)-5-chloro-2-methylnicotinamide]",< 300
8,"Cc1ncc(Cl)cc1C(=O)N[C@H]1CC[C@H](Cn2c(=O)n(-c3ccc(-n4cccn4)cc3)c3ccccc32)CC1 [Example 471, N-((1r,4r)-4-((3-(4-(1H-pyrazol-1-yl)phenyl)-2-oxo-2,3-dihydro-1H-benzo[d]imidazol-1-yl)methyl)cyclohexyl)-5-chloro-2-methylnicotinamide]",< 300
9,"Cc1c[nH]c2ncc(-n3c(=O)n(C[C@H]4CC[C@H](NC(=O)c5cc(Cl)cnc5C(F)F)CC4)c4cccnc43)cc12 [Example 474, 5-chloro-2-(difluoromethyl)-N-((1r,4r)-4-((3-(3-methyl-1H-pyrrolo[2,3-b]pyridin-5-yl)-2-oxo-2,3-dihydro-1H-imidazo[4,5-b]pyridin-1-yl)methyl)cyclohexyl)nicotinamide]",< 300
10,"O=C(N[C@H]1CC[C@H](Cn2c(=O)n(-c3cncc(N4CCOCC4)c3)c3ccccc32)CC1)c1cc(Cl)cnc1C(F)F [Example 476, 5-chloro-2-(difluoromethyl)-N-((1r,4r)-4-((3-(5-morpholino-pyridin-3-yl)-2-oxo-2,3-dihydro-1H-benzo[d]imidazol-1-yl)methyl)cyclohexyl) nicotinamide]",< 300
11,"COCCOc1ccc(-n2c(=O)n(C[C@H]3CC[C@H](NC(=O)c4cc(Cl)cnc4C(F)F)CC3)c3ccccc32)cn1 [Example 477, 5-chloro-2-(difluoromethyl)-N-((1r,4r)-4-((3-(6-(2-methoxy-ethoxy)pyridin-3-yl)-2-oxo-2,3-dihydro-1H-benzo[d]imidazol-1-yl)methyl)cyclohexyl) nicotinamide]",< 300
12,"O=C(N[C@H]1CC[C@H](Cn2c(=O)n(-c3ccc(OC4COC4)nc3)c3ccccc32)CC1)c1cc(Cl)cnc1C(F)F [Example 478, 5-chloro-2-(difluoromethyl)-N-((1r,4r)-4-((3-(6-(oxetan-3-yloxy)pyridin-3-yl)-2-oxo-2,3-dihydro-1H-benzo[d]imidazol-1-yl)methyl)cyclohexyl)nicotinamide]",< 300
13,"O=C(N[C@H]1CC[C@H](Cn2c(=O)n(-c3ccc(NC4COC4)nc3)c3ccccc32)CC1)c1cc(Cl)cnc1C(F)F [Example 481, 5-chloro-2-(difluoromethyl)-N-((1r,4r)-4-((3-(6-(oxetan-3-ylamino)pyridin-3-yl)-2-oxo-2,3-dihydro-1H-benzo [d]imidazol-1-yl)methyl)cyclohexyl)nicotinamide]",< 300
14,"Cc1ncc(Cl)cc1C(=O)N[C@H]1CC[C@H](Cn2c(=O)n(-c3ccc(-c4cnco4)cn3)c3ccccc32)CC1 [Example 489, 5-chloro-2-methyl-N-((1r,4r)-4-((3-(5-(oxazol-5-yl)pyridin-2-yl)-2-oxo-2,3-dihydro-1H-benzo[d]imidazol-1-yl)methyl)cyclohexyl)nicotinamide]",< 300
15,"CNC(=O)c1ccc(-n2c(=O)n(C[C@H]3CC[C@H](NC(=O)c4cc(C(F)(F)F)ccc4Cl)CC3)c3ccccc32)cn1 [Example 490, 5-(3-(((1r,4r)-4-(2-chloro-5-(trifluoromethyl)benza-mido)cyclohexyl)methyl)-2-oxo-2,3-dihydro-1H-benzo[d]imidazol-1-yl)-N-methylpicolinamide]",< 300

# Further lines, results first:
row,IC50 [nM],Compound
1,< 300,"CCC(=O)Nc1ccc(-n2c(=O)n(C[C@H]3CC[C@H](NC(=O)c4cc(Cl)cnc4C)CC3)c3ccccc32)cn1 [Example 479, 5-chloro-2-methyl-N-((1r,4r)-4-((2-oxo-3-(6-propionamidopyridin-3-yl)-2,3-dihydro-1H-benzo[d]imidazol-1-yl)methyl)cyclohexyl)nicotinamide]"
2,< 300,"Cc1ncc(Cl)cc1C(=O)N[C@H]1CC[C@H](Cn2c(=O)n(-c3ccc(NCCC(F)F)nc3)c3ccccc32)CC1 [Example 480, 5-chloro-N-((1r,4r)-4-((3-(6-((3,3-difluoropropyl)amino)pyridin-3-yl)-2-oxo-2,3-dihydro-1H-benzo[d]imidazol-1-yl)methyl)cyclo-hexyl)-2-methylnicotinamide]"
3,< 300,"Cc1ncc(Cl)cc1C(=O)N[C@H]1CC[C@H](Cn2c(=O)n(-c3cncc(N4CCCC4)c3)c3ccccc32)CC1 [Example 482, 5-chloro-2-methyl-N-((1r,4r)-4-((2-oxo-3-(5-(pyrrolidin-1-yl)pyridin-3-yl)-2,3-dihydro-1H-benzo[d]imidazol-1-yl)methyl)cyclohexyl)nicotinamide]"
4,< 300,"Cc1ncc(Cl)cc1C(=O)N[C@H]1CC[C@H](Cn2c(=O)n(-c3cncc(N(C)C)c3)c3ccccc32)CC1 [Example 483, 5-chloro-N-((1r,4r)-4-((3-(5-(dimethylamino)pyridin-3-yl)-2-oxo-2,3-dihydro-1H-benzo [d]imidazol-1-yl)methyl)cyclo-hexyl)-2-methylnicotinamide]"
5,< 300,"COc1cncc(-n2c(=O)n(C[C@H]3CC[C@H](NC(=O)c4cc(Cl)cnc4C)CC3)c3ccccc32)c1 [Example 484, 5-chloro-N-((1r,4r)-4-((3-(5-methoxypyridin-3-yl)-2-oxo-2,3-dihydro-1H-benzo[d]imidazol-1-yl)methyl)cyclo-hexyl)-2-methylnicotinamide]"
6,< 300,"Cc1ncc(Cl)cc1C(=O)N[C@H]1CC[C@H](Cn2c(=O)n(-c3cncc(-c4cnco4)c3)c3ccccc32)CC1 [Example 485, 5-chloro-2-methyl-N-((1r,4r)-4-((3-(5-(oxazol-5-yl)pyridin-3-yl)-2-oxo-2,3-dihydro-1H-benzo[d]imidazol-1-yl)methyl)cyclohexyl)nicotinamide]"
7,< 300,"COCCOc1cncc(-n2c(=O)n(C[C@H]3CC[C@H](NC(=O)c4cc(Cl)cnc4C)CC3)c3ccccc32)c1 [Example 486, 5-chloro-N-((1r,4r)-4-((3-(5-(2-methoxyethoxy)pyridin-3-yl)-2-oxo-2,3-dihydro-1H-benzo[d]imidazol-1-yl)methyl)cyclo-hexyl)-2-methylnicotinamide]"
8,< 300,"CNc1cncc(-n2c(=O)n(C[C@H]3CC[C@H](NC(=O)c4cc(Cl)cnc4C)CC3)c3ccccc32)c1 [Example 487, 5-chloro-2-methyl-N-((1r,4r)-4-((3-(5-(methylamino)pyridin-3-yl)-2-oxo-2,3-dihydro-1H-benzo[d]imidazol-1-yl)methyl)cyclohexyl)nicotinamide]"
9,< 300,"Cc1ncc(Cl)cc1C(=O)N[C@H]1CC[C@H](Cn2c(=O)n(-c3cccc(-c4cnco4)c3)c3ccccc32)CC1 [Example 488, 5-chloro-2-methyl-N-((1r,4r)-4-((3-(3-(oxazol-5-yl)phenyl)-2-oxo-2,3-dihydro-1H-benzo[d]imidazol-1-yl)methyl)cyclo-hexyl)nicotinamide]"
